Experimental data reported in ChEMBL document CHEMBL1147193, “New 5-substituted thiazolo[3,2-b][1,2,4]triazol-6-ones: synthesis and anticancer evaluation” (2007).

Columns and labels:
Format in all cases: functional
[1] = tested on: SF-268; experiment: Anticancer activity against human SF268 cells assessed as growth of cells at 100 uM relative to untreated cells
[2] = tested on: MCF7; experiment: Anticancer activity against human MCF7 cells assessed as growth of cells at 100 uM relative to untreated cells
[3] = tested on: NCI-H460; experiment: Anticancer activity against human NCI-H460 cells assessed as growth of cells at 100 uM relative to untreated cells

SMILES: O=c1/c(=C/C=C\c2ccccc2)sc2ncnn12
- Activity [1]: 128%
- Activity [2]: 138%
- Activity [3]: 95%
